Test results from publication PMC3535377 (Amino Acids, 2011).
pIC50: −log10 of the molar value.

Assays:
human TG6 (T021; Zedira) [1] = molecular target: T1, human TG6 (T021; Zedira) (Homo sapiens, UniProt O95932); test: fluorescence isopeptidase; type: biochemical
T1 sequence (O95932 1-706): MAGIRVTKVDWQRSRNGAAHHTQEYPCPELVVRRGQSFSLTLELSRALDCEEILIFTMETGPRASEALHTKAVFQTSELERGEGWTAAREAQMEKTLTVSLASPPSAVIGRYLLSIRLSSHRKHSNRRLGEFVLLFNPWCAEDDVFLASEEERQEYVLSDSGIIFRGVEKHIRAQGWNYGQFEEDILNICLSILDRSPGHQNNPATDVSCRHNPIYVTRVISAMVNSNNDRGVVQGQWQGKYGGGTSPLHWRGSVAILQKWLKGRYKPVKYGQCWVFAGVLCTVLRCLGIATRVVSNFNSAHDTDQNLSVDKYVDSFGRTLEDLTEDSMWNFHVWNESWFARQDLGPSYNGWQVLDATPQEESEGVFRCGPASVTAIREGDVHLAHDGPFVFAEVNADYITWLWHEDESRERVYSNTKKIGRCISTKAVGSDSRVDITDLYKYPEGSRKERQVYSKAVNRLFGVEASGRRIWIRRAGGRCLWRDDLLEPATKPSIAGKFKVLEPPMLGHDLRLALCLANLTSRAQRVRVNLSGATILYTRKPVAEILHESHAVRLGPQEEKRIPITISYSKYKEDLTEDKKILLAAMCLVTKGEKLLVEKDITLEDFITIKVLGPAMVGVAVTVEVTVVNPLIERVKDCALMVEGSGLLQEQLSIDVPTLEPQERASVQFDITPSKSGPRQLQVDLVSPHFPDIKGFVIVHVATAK

human TG6 (T021; Zedira) [2] = molecular target: T1, human TG6 (T021; Zedira); test: fluorescence isopeptidase; type: biochemical; details: 37°C, Ca2+-activated; allosteric

| Compound | pIC50 (human TG6 (T021; Zedira) [1]) | half-maximal inhibition (human TG6 (T021; Zedira) [2]) |
| --- | --- | --- |
| Nc1nc2c(ncn2[C@@H]2O[C@H](COP(=O)(O)OP(=O)(O)O)[C@@H](O)[C@H]2O)c(=O)[nH]1 [GDP] | – | Activity of TG6 is inhibited to a similar degree by GTP and GDP |
| Nc1nc2c(ncn2[C@@H]2O[C@H](COP(=O)(O)O)[C@@H](O)[C@H]2O)c(=O)[nH]1 [GMP] | – | but the affinity for GMP is low |
| Nc1nc2c(ncn2[C@@H]2O[C@H](COP(=O)(O)OP(=O)(O)OP(O)(O)=S)[C@@H](O)[C@H]2O)c(=O)[nH]1 [GTPγS] | – | The non-hydrolyzable GTP analogue GTPγS is a more effective inhibitor than GTP |

More lines, main results first:

| pIC50 (human TG6 (T021; Zedira) [1]) | Compound | half-maximal inhibition (human TG6 (T021; Zedira) [2]) |
| --- | --- | --- |
| ~3.00 | Nc1ncnc2c1ncn2[C@@H]1O[C@H](COP(=O)(O)OP(=O)(O)OP(=O)(O)O)[C@@H](O)[C@H]1O [ATP] | – |
| 3.70 | Nc1nc2c(ncn2[C@@H]2O[C@H](COP(=O)(O)OP(=O)(O)OP(=O)(O)O)[C@@H](O)[C@H]2O)c(=O)[nH]1 [GTP] | – |
